pIC50: −log10 of the molar value. Where two headings read alike, the source gives them in different places.
Columns and labels:
[1] = biological target: T1, human recombinant Monoacylglycerol Lipase (Homo sapiens, UniProt Q99685); test: MAGL inhibition enzymatic assay (7-HCA fluorogenic substrate); format: biochemical; conditions: geometric mean
T1 sequence (Q99685 1-303): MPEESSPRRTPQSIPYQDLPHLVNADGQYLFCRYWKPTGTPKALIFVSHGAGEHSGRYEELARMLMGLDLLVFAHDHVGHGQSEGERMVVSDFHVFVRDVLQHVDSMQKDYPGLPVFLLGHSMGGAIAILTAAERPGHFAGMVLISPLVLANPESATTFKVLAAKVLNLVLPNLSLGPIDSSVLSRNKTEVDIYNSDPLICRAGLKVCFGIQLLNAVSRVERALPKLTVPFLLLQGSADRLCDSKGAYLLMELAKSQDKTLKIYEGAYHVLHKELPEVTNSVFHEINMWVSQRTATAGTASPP
Description: (§1) Assessment of MAGL inhibition utilizes human recombinant Monoacylglycerol Lipase and the fluorogenic substrate 7-hydroxycoumarinyl arachidonate (7-HCA, Biomol ST-502). 400 nL of a test compound at decreasing concentration (ranging from 150 μM down to 1.5 nM) was spotted into a 384-well back plate (PerkinElmer, 6007279) using a Labcyte Echo, followed by addition of 10 μL of MAGL enzyme in assay buffer (50 mM HEPES, pH 7.4, 100 mM NaCl, 5 mM MgCl2, 0.1% Triton X-100 and 25% glycerin). An equal volume of 7-HCA in assay buffer with 10% DMSO was added either immediately (T=0 min) or after a 30 minute incubation (T=30 min) to initiate the reaction. The final concentration of MAGL enzyme was […] and 7-HCA substrate was 5 μM. After these dilutions, the final concentration of the test compound ranged from 3 μM to 0.03 nM. The reaction was allowed to progress for 60 minutes, after which the plate was read at an Ex/Em of 340/465. Percent inhibitions were calculated based on control wells containing no compound (0% inhibition) and a control compound (e.g., a MAGL inhibitor whose activity is known or was previously reported in the literature, such as one with about 100% inhibition). IC50 values were generated based on a four parameter fit model using ABASE software from IDBS. See e.g., Wang, Y. et al., “A Fluorescence-Based Assay for Monoacylglycerol Lipase Compatible with Inhibitor Screening,” Assay and Drug Development Technologies, 2008, Vol. 6 (3) pp 387-393 (reporting an assay for measuring MAGL activity).

human recombinant FAAH = biological target: T2, human recombinant FAAH (Homo sapiens, UniProt O00519); test: FAAH inhibition enzymatic assay (Arachidonoyl-AMC substrate); format: biochemical; conditions: 30 minute incubation; geometric mean; read-out: FAAH (T = 30 min) IC50
T2 construct: purchased Cayman 10010183
T2 sequence (O00519 1-579): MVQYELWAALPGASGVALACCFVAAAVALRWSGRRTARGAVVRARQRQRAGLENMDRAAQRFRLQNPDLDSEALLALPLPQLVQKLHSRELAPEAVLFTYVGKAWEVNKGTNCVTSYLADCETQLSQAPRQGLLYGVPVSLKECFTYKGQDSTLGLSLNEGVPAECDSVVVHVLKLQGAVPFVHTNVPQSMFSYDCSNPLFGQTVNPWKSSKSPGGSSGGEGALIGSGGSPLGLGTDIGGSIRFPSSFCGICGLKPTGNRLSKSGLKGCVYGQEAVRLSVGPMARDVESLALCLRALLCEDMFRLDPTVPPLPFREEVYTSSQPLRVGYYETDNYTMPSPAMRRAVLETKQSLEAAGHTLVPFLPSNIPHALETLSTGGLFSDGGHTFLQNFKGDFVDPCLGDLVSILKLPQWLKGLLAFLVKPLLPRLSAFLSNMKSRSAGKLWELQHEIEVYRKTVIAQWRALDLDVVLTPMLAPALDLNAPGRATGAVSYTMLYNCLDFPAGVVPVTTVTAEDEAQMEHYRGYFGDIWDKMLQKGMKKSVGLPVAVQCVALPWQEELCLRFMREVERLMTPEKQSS
Description: Assessment of FAAH inhibition utilizes human recombinant FAAH and the fluorescent substrate, Arachidonoyl-AMC. 400 nL of a test compound at decreasing concentrations was spotted into a 384-well back plate (PerkinElmer, 6007279) using a Labcyte Echo, followed by addition of 10 μl of FAAH enzyme (Cayman 10010183) in assay buffer (50 mM Tris, pH 9.0, 1 mM EDTA, i.e. ethylenediaminetetraacetic acid). After a 30 minute incubation at room temperature, 10 μL of Arachidonyl-AMCA was added in assay buffer with 16% DMSO. […] The reaction was allowed to progress for 60 minutes, after which the plate was read on a Molecular Devices FlexStation reader at an Ex/Em of 355/460. Percent inhibitions were calculated based on controls wells containing either no compound (0% inhibition) or a control compound (e.g., an FAAH inhibitor whose activity is known or was previously reported in the literature, such as one with about 100% inhibition). IC50 values were generated based on a four parameter fit model using ABASE software from IDBS.

[2] = biological target: T1, human recombinant Monoacylglycerol Lipase; test: MAGL inactivation (enzyme progress curves, kinact/KI); format: biochemical; conditions: geometric mean
Description: as §1
To measure MAGL inactivation, the same protocol for the (T=0 min) MAGL inhibition IC50 assay was performed with data collected every minute to acquire enzyme progress curves at decreasing concentrations of compound.

[3] = In vitro intrinsic clearance in human hepatocytes; format: in vitro ADME; conditions: 1 μM substrate, human hepatocytes 0.5 million viable cells per mL, 37° C.
Description: Test Compounds (Example 1-3 and Comparative-Compounds 1-4) were prepared as solutions in DMSO at 3 mM which were then diluted in media containing WEM. The final concentration of DMSO in the incubation was 0.03% (v/v). The in vitro half-life (t½) of each compound was determined in incubations containing substrate (1 μM), human hepatocytes (0.5 million viable cells per mL final concentration) in media containing WEM, 50 mM HEPES buffer (pH 7.4), and 26 mM sodium bicarbonate at 37° C. (all final concentrations) in a 96-well plate. The reaction mixture was pre-warmed at 37° C. for 30 min prior to the initiation of the incubation. The incubation was quenched with acetonitrile containing internal standards at the following time points: 0, 5, 15, 30, 60, 120, and 240 min (individual incubation plates per time point). The samples were vortexed followed by centrifugation. An aliquot of supernatant was transferred to a clean 96-well plate and analyzed by LC/MS-MS using multiple reaction monitoring. For control experiments, hepatocytes were omitted from the incubations.
The hepatocyte t½ (min) was obtained from a log-linear plot of the substrate depletion versus incubation time and was scaled to hepatic intrinsic clearance (CLint,app (μL/min/million cells) using the following equation: […]

[4] = In vitro intrinsic clearance in human liver microsomes (HLM); format: in vitro ADME; conditions: pH 7.4, 1 μM substrate, NADPH, 37° C., read-out: HLM CLint, app
Description: Test Compounds (Example 1-3 and Comparative-Compounds 1-4) were prepared as solutions in DMSO. The final concentration of DMSO in the incubation was <0.1% (v/v). […] (all final concentrations) in a 384-well plate. The reaction mixture was pre-warmed at 37° C. for 10 min prior to initiation of the incubation. The incubation was quenched with acetonitrile containing internal standards at the following time points: 1, 4, 7, 12, 20, 25, 45, and 60 min (individual incubation plates per time point) with a subsequent addition of water. The samples were vortexed followed by centrifugation and the supernatant was analyzed by LC/MS-MS using multiple reaction monitoring. For control experiments, NADPH was omitted from the incubations.
The microsomal t½ (min) was obtained from a log-linear plot of the substrate depletion versus incubation time and was scaled to hepatic intrinsic clearance (CLint,app (μL/min/mg protein) using the following equation: […]

[5] = Dynamic vapor sorption (hygroscopicity); format: physicochemical; conditions: 25° C.
Description: (§2) An automated vapor sorption analyzer (VTI SGA-CX; VTI scientific) was used to measure the hygroscopicity of the anhydrate of Form I of the invention. The microbalance was calibrated using a 100 mg standard weight. The relative humidity sensor was calibrated at 5.0, 11.3, 32.8, 52.8, 75.3, and 84.3% RH (25° C.) using saturated salt solutions, as well as 80% RH (25° C.) using polyvinylpyrrolidone. Approximately 8-10 mg of the powder sample was placed in the platinum sample pan and dried at 3% relative humidity (RH) at 25° C. with a heating rate of 1° C. per minute. The attainment of equilibrium was assumed when the weight change of the sample was <0.001 wt % in 5 min or by a maximum equilibration time of 120 minutes. […] Again, the attainment of equilibrium was assumed when the weight change of the sample was <0.001 wt % in 5 min or by a maximum equilibration time of 120 minutes. The weight gain at the end of the sorption cycle (90% RH) was calculated on the basis of the dry weight.
as §2, with “Moisture/Water sorption and desorption studies were conducted on automated” for “An automated”, “analyzer (TA instruments Q5000 SA).” for “analyzer (VTI SGA-CX; VTI scientific) was used to measure the hygroscopicity of the anhydrate of Form I of the invention.”, “salt solutions.” for “salt solutions, as well as 80% RH (25° C.) using polyvinylpyrrolidone.”, “Approximately 10-20” for “Approximately 8-10”, “at ≤3%” for “at 3%”, “C.” for “C. with a heating rate of 1° C. per minute.”

[6] = 30 minute incubation before substrate, read-out: MAGL (T = 30 min) IC50
[7] = substrate added immediately (T=0 min), read-out: MAGL (T = 0 min) IC50

Structure (SMILES)	pIC50 [1, 6]	pIC50 [1, 7]	pIC50 (human recombinant FAAH)	MAGL kinact/KI [2]	HHEPs CLint, app [3]	microsomal CLint at 1 μM [4]	DVS weight gain ([5]; 0-60% RH)	DVS weight gain ([5]; 60% RH)	DVS weight gain ([5]; 75% RH)	DVS weight gain ([5]; 90% RH)	DVS weight gain ([5]; at up to 90% RH)
O=C(OC(C(F)(F)F)C(F)(F)F)N1CCC2(CCC(NS(=O)(=O)CC3CC3)CO2)CC1 (single isomer, unassigned; ent-1) [Example 4, 1,1,1,3,3,3-Hexafluoropropan-2-yl 3-{[(cyclopropylmethyl)sulfonyl]amino}-1-oxa-9-azaspiro[5.5]undecane-9-carboxylate, ENT-1]	7.70	6.79	< 4.52	3110 1/s per M	–	–	–	–	–	–	–
O=C(OC(C(F)(F)F)C(F)(F)F)N1CCC2(CCC(NS(=O)(=O)CC3CC3)CO2)CC1 (single isomer, unassigned; ent-2) [Example 5, 1,1,1,3,3,3-Hexafluoropropan-2-yl 3-{[(cyclopropylmethyl)sulfonyl]amino}-1-oxa-9-azaspiro[5.5]undecane-9-carboxylate, ENT-2]	8.00	6.99	< 4.52	6930 1/s per M	–	–	–	–	–	–	–
O=C(OC(C(F)(F)F)C(F)(F)F)N1CCC2(CC1)C[C@@H](NS(=O)(=O)c1ccccc1)CO2 [Comparative-Compound 4, 1,1,1,3,3,3-hexafluoropropan-2-yl (3R)-3-[(phenylsulfonyl)amino]-1-oxa-8-azaspiro[4.5]decane-8-carboxylate]	–	–	–	–	27.5 μL/min/million	30.4 µL/min/mg	–	–	–	–	–
O=C(OC(C(F)(F)F)C(F)(F)F)N1CCC2(CC1)C[C@@H](NS(=O)(=O)C1CC1)CO2 [Form A, 1,1,1,3,3,3-hexafluoropropan-2-yl(3R)-3-[(cyclopropylsulfonyl)amino]-1-oxa-8-azaspiro[4.5]decane-8-carboxylate]	–	–	–	–	–	–	0-60% RH, 25° C.: <0.1% weight gain	60% RH, 25° C.: <0.1% weight gain	75% RH, 25° C.: <0.1% weight gain	90% RH, 25° C.: <0.1% weight gain	less than 0.1%
O=C(OC(C(F)(F)F)C(F)(F)F)N1CCC2(CC1)C[C@@H](NS(=O)(=O)CC1CC1)CO2 [Form I, 1,1,1,3,3,3-Hexafluoropropan-2-yl (3R)-3-{[(cyclopropylmethyl)sulfonyl]amino}-1-oxa-8-azaspiro[4.5]decane-8-carboxylate]	–	–	–	–	–	–	0-60% RH, 25° C.: <0.1% weight gain	60% RH, 25° C.: <0.1% weight gain	75% RH, 25° C.: <0.1% weight gain	90% RH, 25° C.: <0.1% weight gain	less than 0.1%

From patent publication US20210309669A1, “Heterocyclic Spiro Compounds As MAGL Inhibitors” (Pfizer Inc., priority 2018, published 2021)
